Assay results from paper PMC8964227, “IP-Se-06, a Selenylated Imidazo[1,2-a]pyridine, Modulates Intracellular Redox State and Causes Akt/mTOR/HIF-1α and MAPK Signaling Inhibition, Promoting Antiproliferative Effect and Apoptosis in Glioblastoma Cells” (Oxidative Medicine and Cellular Longevity, 2022).

How the values were obtained:
p38 MAPK = assay: Western blotting p38, A172 cells; type: cell-based, human; settings: 1 μM, 48 h, vs control
Description: (§1) After treatment with IP-Se-06 (1 μM) for 48 h, A172 cells were harvested with a lysis buffer. The lysates were collected, and the total proteins present in the lysates were quantified according to Lowry. Proteins present in the cell lysates (30 μg) were subjected to SDS-polyacrylamide gel electrophoresis, followed by electroblotting to polyvinylidene fluoride (PVDF) membranes. Nonspecific binding was blocked by incubating the membrane with skimmed milk in TBS buffer containing 0.1% Tween 20 (TBS-T) for 1 h. After primary antibody incubation, membranes were incubated with appropriate HRP-conjugated secondary antibodies for 1 h at room temperature. Immunodetection was performed using an enhanced chemiluminescence (ECL) detection kit. Protein bands were visualized using ChemiDoc MP Imaging System (Bio-Rad) and quantified by densitometry using the freeware ImageJ by Wayne Rasband from the National Institute of Health (USA).

NRF2 = assay: Western blotting NRF2, A172 cells; type: cell-based, human; settings: 1 μM, vs control
Description: as §1

A172 cells [1] = assay: Chromatin condensation detection (DAPI); type: cell-based, human; settings: 1 μM, 72 h
Description: DAPI was used to analyze changes in the nuclear morphology of apoptotic cells after DNA damage. A172 cells (0.5 × 10^4/well) in 24-well plates were treated with IP-Se-06 (1 μM) for 72 h. The cells were then fixed with 4% paraformaldehyde for 10 min at 4°C. The fixed cells were washed three times with PBS (pH 7.4) and stained with DAPI (3 μg/mL) in PBS at 37°C for 10 min. Finally, the cells were washed in PBS, and nuclear morphology was photographed by a fluorescence Olympus IX83 microscope.

Akt = assay: Western blotting Akt, A172 cells; type: cell-based, human; settings: 1 μM, 48 h, vs control
Description: as §1

[2] = test system: thioredoxin reductase (TrxR); assay: Thioredoxin reductase activity in A172 cells (DTNB reduction); type: cell-based, human; settings: 1 μM, 6 h, vs control
Description: To determine thioredoxin reductase (TrxR) activity and levels of reduced glutathione (GSH), glioblastoma cells were plated (4 × 10^5/well) into 12-well plates. At confluence, the cells were exposed at low concentration to IP-Se-06 (1 μM) for 6 h. After treatment time, cells were washed twice with PBS and resuspended with PBS/Triton 1%, centrifuged at 5000 g for 5 min and the supernatants were used for the determinations. All results were normalized by the protein content using the Bradford method.
TrxR activity was determined in A172 cells according to the method previously described by Arnér and collaborators, measuring the NADPH-dependent DTNB reduction to TNB (5-thio-2-nitrobenzoic acid) promoted by TrxR activity. The content of TNB derived from free thiols was measured at 412 nm. The enzyme activity was expressed as μmol·min^−1·mg protein^−1.

HIF-1α = assay: Western blotting HIF-1α, A172 cells; type: cell-based, human; settings: 1 μM, 48 h, vs control
Description: as §1

NLRP3 = assay: Western blotting NLRP3, A172 cells; type: cell-based, human; settings: 1 μM, 48 h, vs control
Description: as §1

p-Akt = assay: Western blotting p-Akt, A172 cells; type: cell-based, human; settings: 1 μM, 48 h, vs control
Description: as §1

p-p38 = assay: Western blotting p-p38, A172 cells; type: cell-based, human; settings: 1 μM, 48 h, vs control
Description: as §1

A172 cells [3] = assay: Assessment of cell death (acridine orange plus propidium iodide); type: cell-based, human; settings: 1 μM, 72 h, vs nontreated
Description: The cells were seeded (density of 2 × 10^5/well) into 6-well plates. After confluence, cells were treated with IP-Se-06 (1 μM) for 72 h. After this period, tumor cells were washed with PBS, trypsinized, centrifuged at 1500 g for 5 min, resuspended in PBS, and stained with a solution (6 μL, 1 : 1) of acridine orange (100 μg/mL) plus propidium iodide (100 μg/mL). This staining is used to analyze nuclear changes that characterize apoptotic and necrotic cells according to McGahon and collaborators. Cells (300/glass slide) from triplicates were observed under a fluorescence microscope (Olympus BX41) and categorized as viable, apoptotic, or necrotic.

mTOR = assay: Western blotting mTOR, A172 cells; type: cell-based, human; settings: 1 μM, 48 h, vs control
Description: as §1

γ-H2AX = assay: Western blotting γ-H2AX, A172 cells; type: cell-based, human; settings: 1 μM, vs control
Description: as §1

A172 cells [4] = assay: Clonogenic assay; type: cell-based, human; settings: 1 μM, 72 h
Description: To analyze the ability of the organoselenium compound to prevent cell proliferation and the progression of tumorigenesis, the methodology proposed by Franken and collaborators was used. In total, 500 cells per well were seeded in 6-well plates for 24 h. Before treatment with IP-Se-06, two groups were treated with the mitogen-activated protein kinase/ERK kinase inhibitor U0126 (Cell Signaling Technology, USA, Cat. #9903) at 10 μM for 1 h. A172 cells were exposed to IP-Se-06 (1 μM), while untreated cells were maintained as a control. After 72 h of incubation, the cells were washed with PBS, and fresh growth medium DMEM-F12 was added. At 7 days after treatment, colonies were fixed with 10% ethanol, stained with 0.5% crystal violet stain solution, manually counted, and photographed. Finally, cells were discolored with 1 mL of acetic acid 10% for 10 min, and the absorbance was measured at 590 nm in a multireader (Infinite M200 TECAN).

ERK 1/2 = assay: Western blotting ERK 1/2, A172 cells; type: cell-based, human; settings: 1 μM, 48 h
Description: as §1

[5] = test system: Ehrlich ascitic carcinoma; design: method as in PMID 33125183; settings: 1 mg/kg, Ehrlich ascitic carcinoma-bearing mice; cited from earlier work
HT-22 cells = assay: MTT cytotoxicity assay, HT-22; type: cell-based, mouse; settings: 72 h
Description: Cell viability after treatments with selenylated imidazo[1,2-a]pyridines (IP-Se-01–IP-Se-10) was analyzed by quantitative colorimetric assay with MTT, according to Mosmann. IP-01, a prototype molecule without the addition of the selenium in its structure, was also tested. A172 and HT-22 cells were cultured in 96-well plates (10^4 cells/well). After confluence, cells were exposed to selenylated imidazo[1,2-a]pyridines (0.1, 1, 10, 100, and 1000 μM) for up to 72 h. After this phase, cell medium was removed and the cells were washed twice with PBS and incubated with MTT solution (0.5 mg/mL) for 2 h. The insoluble formazan was dissolved by adding DMSO (100 μL/well), and colorimetric determination of MTT reduction was measured at 550 nm in a multireader Infinite M200 Tecan. Three independent experiments were conducted, and the results are presented as IC50 (half maximal inhibitory concentration).

In the case of `COc1ccccc1[Se]c1c(-c2ccccc2)nc2cc(C)ccn12` [IP-Se-06, 3-((2-methoxyphenyl)selanyl)-7-methyl-2-phenylimidazol[1,2-a]pyridine], the “levels of p38” value (p38 MAPK) is reported as “significantly decreased”, the “levels of NRF2 protein” value (NRF2) is reported as “decreased” and the “nuclear morphology (DAPI)” value (A172 cells [1]) is reported as “brightly stained and condensed nuclei”. The “levels of Akt” value (Akt) was “significant reduction”, the TrxR intracellular activity [2] was “significantly decreased” and the HIF-1α levels (HIF-1α) was “significantly decreased”. The “levels of NLRP3” value (NLRP3) was “decreased”, the “levels of p-Akt” value (p-Akt) was “significant reduction” and the “phosphorylation of p38 (p-p38)” value (p-p38) was “significantly decreased”. For the same compound, the “apoptosis (acridine orange plus propidium iodide)” value (A172 cells [3]) was “able to induce apoptosis”, the “levels of mTOR” value (mTOR) was “significant reduction” and the “levels of γ-H2AX” value (γ-H2AX) was “increased”. For the same compound, the “number of cells in the colonies (absorbance 590 nm)” value (A172 cells [4]; concomitantly with U0126 10 μM 1 h, vs treatments alone) was “even lower”, the “number of cells in the colonies (absorbance 590 nm)” value (A172 cells [4]; vs control) was “decreased” and the “rate of colony formation” value (A172 cells [4]; vs nontreated) was “decreased”. For the same compound, the “ERK 1/2 levels” value (ERK 1/2; combination with U0126 10 μM 1 h, vs nontreated and U0126 alone) was “synergistic inhibition”, the “ERK 1/2 levels” value (ERK 1/2; vs control) was “important reduction” and the angiogenesis [5] was “inhibited angiogenesis”. The tumor growth [5] was “growth inhibition of tumor”, the “cytotoxic activity on the mouse hippocampal cell line” value (HT-22 cells; in words) was “no significant cytotoxic activity” and the IC50 (HT-22 cells; Mus musculus, HT-22, MTT) was 65 µM.
